Here are results for ten molecules from ChEMBL document CHEMBL1201862, “PubChem BioAssay data set” (2004).

Some test systems named below: ACHN; BT-549; EKVX; HOP-62; K562; MDA-MB-435; MDA-N; MOLT-4; NCI/ADR-RES; OVCAR-4; RXF 393; SF-268; SF-539; SK-OV-3; SN12C; SNB-19; T47D; U-251; UACC-257; UO-31.
Experiment in all cases: DTP human tumour cell line panel, 48 h

Molecules are shown by their SMILES.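 Results reflect a 48-hour exposure of cells in 96-well plates to compound at five concentrations. GI50 is the concentration that inhibits growth by half.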 Calls of active or inactive are those of the source. Rule as the data show it: active = GI50 up to about 1.1 µM and inactive = higher.

Turning to `CCOC(=O)NN(C(=O)OCC)C(=C(c1ccccc1)N1CCOCC1)N(NC(=O)OCC)C(=O)OCC`, the GI50 in the assay on ACHN, with BT-549, in the assay with EKVX, with HOP-62, with K562 and with MDA-MB-435 was > 100 µM (inactive) each time. Also, the GI50 in the assay with MDA-N, in the assay with MOLT-4, in the assay on NCI/ADR-RES, with OVCAR-4, in the assay with RXF 393 and with SF-268 was > 100 µM (inactive) throughout. In addition, the GI50 with SF-539, in the assay with SK-OV-3, with SN12C, in the assay on SNB-19, in the assay with T47D and in the assay with U-251 was > 100 µM (inactive) each time. Further, the GI50 (as a rule, the concentration at which growth is held to half of that of the control) with UACC-257 was > 100 µM (inactive); in the assay with UO-31, 58.5 µM (inactive).

For `CCCCCCCCCCCCCCC(C(=O)[O-])[n+]1ccccc1` (stereo not given), the GI50 in the assay on ACHN, in the assay on BT-549, with EKVX, in the assay on HOP-62, in the assay on K562 and with MDA-MB-435 was > 100 µM (inactive) each time. Also, the GI50 in the assay with MDA-N was > 100 µM (inactive); in the assay with MOLT-4 it was > 100 µM (inactive); in the assay on NCI/ADR-RES, > 100 µM (inactive); in the assay with OVCAR-4 it was > 100 µM (inactive); with RXF 393, 20.4 µM (inactive); in the assay with SF-268, > 100 µM (inactive). Also, the GI50 in the assay with SF-539 was > 100 µM (inactive); in the assay on SK-OV-3, > 100 µM (inactive); with SN12C it was 23.4 µM (inactive); in the assay on SNB-19, > 100 µM (inactive); with T47D, > 100 µM (inactive); in the assay with U-251, 28.6 µM (inactive). In addition, the GI50 in the assay on UACC-257 and in the assay with UO-31 was > 100 µM (inactive) in each case.

As to `O=C(O)c1ccc2c(c1)CC1(C2)Cc2ccccc2C1=O` (stereo not given), the GI50 in the assay with ACHN, in the assay with BT-549, in the assay with EKVX, in the assay with HOP-62, in the assay on K562 and in the assay on MDA-MB-435 was > 100 µM (inactive) each time. For the same molecule, the GI50 in the assay on MDA-N, with MOLT-4, in the assay on NCI/ADR-RES, in the assay on OVCAR-4, with RXF 393 and with SF-268 was > 100 µM (inactive) throughout. Also, the GI50 with SF-539, with SK-OV-3, with SN12C, in the assay with SNB-19, in the assay with T47D and in the assay on U-251 was > 100 µM (inactive) in each case. In addition, the GI50 with UACC-257 and with UO-31 was > 100 µM (inactive) in each case.

On to `COC(=O)C(CCC1C=CCC1)/N=C\c1ccccc1` (stereo not given), for which the GI50 was 73.5 µM (inactive) in the assay on ACHN; 78.5 µM (inactive) in the assay with BT-549; 44.8 µM (inactive) in the assay on EKVX; 68.5 µM (inactive) in the assay on HOP-62; 47.2 µM (inactive) with K562; 60.3 µM (inactive) in the assay on MDA-MB-435. Also, the GI50 with MDA-N is 49.9 µM (inactive); in the assay with MOLT-4, 33.8 µM (inactive); in the assay on NCI/ADR-RES, 26.9 µM (inactive); in the assay with OVCAR-4 it was 54.7 µM (inactive); in the assay with RXF 393, 58.5 µM (inactive); in the assay with SF-268, 99.8 µM (inactive). The GI50 in the assay with SF-539 is > 100 µM (inactive); in the assay with SK-OV-3 it was > 100 µM (inactive); in the assay with SN12C, 60.4 µM (inactive); with SNB-19, 79.1 µM (inactive); in the assay on T47D, 47.4 µM (inactive); in the assay with U-251, 52.1 µM (inactive). For the same molecule, the figures for the GI50 with UACC-257 and in the assay with UO-31 were 38.2 µM (inactive) and 51.9 µM (inactive), respectively.

Consider `CNc1cc2c(c3ccccc13)C(CCl)CN2C(=O)c1cc2cc(OC)c(OC)c(OC)c2[nH]1` (stereo not given), for which the GI50 in the assay on ACHN is 0.000124 µM (active); with BT-549 it was 0.00881 µM (active); in the assay with EKVX, 0.00381 µM (active); in the assay with HOP-62 it was 0.00281 µM (active); with K562, 0.00188 µM (active); in the assay with MDA-MB-435, 0.00309 µM (active). Also, the GI50 in the assay with MDA-N is 0.00243 µM (active); with MOLT-4, 0.00053 µM (active); in the assay with NCI/ADR-RES, 0.000991 µM (active); in the assay on OVCAR-4, < 0.01 µM (active); in the assay on RXF 393, < 0.01 µM (active); in the assay on SF-268, 0.0017 µM (active). The GI50 in the assay with SF-539 is 0.00196 µM (active); in the assay with SK-OV-3 it was 0.0116 µM (active); with SN12C, 0.000881 µM (active); in the assay with SNB-19, 0.0124 µM (active); in the assay on T47D it was 0.00322 µM (active); in the assay with U-251, 0.00191 µM (active). For the same molecule, the GI50 in the assay on UACC-257 is 0.00541 µM (active); in the assay on UO-31, 0.00223 µM (active).

Turning to `CSc1ncc2c(C#N)c3ccccn3c(=O)c2n1`, the GI50 in the assay with ACHN, with BT-549, in the assay on EKVX, in the assay on HOP-62, with K562 and in the assay with MDA-MB-435 was > 100 µM (inactive) throughout. For the same molecule, the GI50 in the assay with MDA-N, in the assay on MOLT-4, with NCI/ADR-RES, with OVCAR-4, in the assay with RXF 393 and in the assay on SF-268 was > 100 µM (inactive) in each case. The GI50 in the assay on SF-539, in the assay with SK-OV-3, with SN12C, with SNB-19, in the assay on T47D and in the assay with U-251 was > 100 µM (inactive) throughout. Besides, the GI50 in the assay on UACC-257 and with UO-31 was > 100 µM (inactive) in each case.

With `Clc1ccccc1/C=C/c1nsc(/C=C/c2ccccc2Cl)n1`, the GI50 in the assay with ACHN is 50.4 µM (inactive); in the assay on BT-549, 92 µM (inactive); with EKVX it was 61 µM (inactive); with HOP-62 it was 36.6 µM (inactive); in the assay with K562, 21.8 µM (inactive); in the assay on MDA-MB-435, 42.6 µM (inactive). For the same molecule, the GI50 in the assay with MDA-N is 35 µM (inactive); in the assay with MOLT-4, 33.5 µM (inactive); in the assay with NCI/ADR-RES, 45.2 µM (inactive); in the assay with OVCAR-4 it was 81.7 µM (inactive); in the assay with RXF 393, > 100 µM (inactive); in the assay on SF-268, 55.5 µM (inactive). The GI50 in the assay on SF-539 is 78.5 µM (inactive); with SK-OV-3, 70.1 µM (inactive); in the assay on SN12C it was 23.6 µM (inactive); in the assay on SNB-19, > 100 µM (inactive); in the assay with T47D, 10.4 µM (inactive); in the assay with U-251 it was 34.8 µM (inactive). Besides, the GI50 with UACC-257 is 26.5 µM (inactive); in the assay on UO-31, > 100 µM (inactive).

As to `O=c1c2ccccc2sc2ccccc12`, the GI50 with ACHN, in the assay with BT-549, in the assay with EKVX, in the assay with HOP-62, with K562 and in the assay with MDA-MB-435 was > 100 µM (inactive) throughout. Further, the GI50 in the assay on MDA-N, in the assay with MOLT-4, with NCI/ADR-RES, in the assay on OVCAR-4, in the assay with RXF 393 and in the assay with SF-268 was > 100 µM (inactive) each time. For the same molecule, the GI50 in the assay on SF-539 is > 100 µM (inactive); in the assay with SK-OV-3, > 100 µM (inactive); in the assay on SN12C, > 100 µM (inactive); with SNB-19, > 100 µM (inactive); in the assay with T47D, > 100 µM (inactive); in the assay on U-251, 14.9 µM (inactive). Moreover, the GI50 in the assay with UACC-257 and in the assay with UO-31 was > 100 µM (inactive) throughout.

As to `CN(CCNC(=O)c1nn(C)c2c1Cc1ccccc1-2)CCNC(=O)c1nn(C)c2c1Cc1ccccc1-2`, the GI50 with ACHN is 14.5 µM (inactive); in the assay with BT-549 it was 16.2 µM (inactive); in the assay with EKVX, 23.2 µM (inactive); in the assay on HOP-62 it was 15.4 µM (inactive); with K562, 12.7 µM (inactive); in the assay on MDA-MB-435, 15.2 µM (inactive). For the same molecule, the GI50 with MDA-N was 14.5 µM (inactive); in the assay with MOLT-4, 12.4 µM (inactive); with NCI/ADR-RES, 21.4 µM (inactive); in the assay on OVCAR-4, 17.6 µM (inactive); in the assay on RXF 393, 14.8 µM (inactive); in the assay on SF-268, 14.7 µM (inactive). Moreover, the GI50 is 14.3 µM (inactive) with SF-539; 18.2 µM (inactive) in the assay on SK-OV-3; 14.9 µM (inactive) in the assay with SN12C; 15.6 µM (inactive) in the assay on SNB-19; 22.5 µM (inactive) in the assay with T47D; 15.6 µM (inactive) in the assay on U-251. In addition, the GI50 in the assay on UACC-257 is 14 µM (inactive); with UO-31, 10.4 µM (inactive).

For the molecule `Cc1cc(C)n(CN(Cn2nc(C)cc2C)c2ccccc2)n1`, the GI50 in the assay with ACHN was 18.4 µM (inactive); in the assay with BT-549 it was 21.8 µM (inactive); with EKVX, 24.7 µM (inactive); in the assay with HOP-62, 23.7 µM (inactive); with K562, 15.6 µM (inactive); in the assay on MDA-MB-435 it was 13.7 µM (inactive). The GI50 was 14.5 µM (inactive) in the assay on MDA-N; 10.5 µM (inactive) in the assay on MOLT-4; 20.8 µM (inactive) with NCI/ADR-RES; 20.3 µM (inactive) in the assay on OVCAR-4; 19.3 µM (inactive) in the assay with RXF 393; 20.4 µM (inactive) in the assay on SF-268. Besides, the GI50 in the assay with SF-539 is 19.4 µM (inactive); with SK-OV-3, 40.9 µM (inactive); in the assay on SN12C, 35.1 µM (inactive); in the assay on SNB-19 it was 45.5 µM (inactive); with T47D, 23.7 µM (inactive); in the assay with U-251, 17.8 µM (inactive). The GI50 with UACC-257 was 22.3 µM (inactive); in the assay with UO-31 it was 21.7 µM (inactive).
